Drawing on patent publication US10100022B2, “Sphingosine kinase inhibitors” (University of Virginia Patent Foundation, priority 2014, dated 2018), this text covers Ki for 20 molecules.

For assay [1], the target named is T1, human sphingosine kinase type 1 (hSPHK1) (Homo sapiens, UniProt Q9NYA1).
T1 construct: made in house; host or cells: Sf9 insect cells (baculovirus)
Put plainly: Sphingosine kinase assay, recombinant human SPHK1 ([32P]S1P product, scintillation counting). Format: biochemical. Conditions: read-out: activity hSPHK1 (range estimate of KI). The method, then: (§1) Recombinant baculovirus encoding human sphingosine kinase type 1 (SPHK1) was used to infect Sf9 insect cells and after 2-5 days, cleared lysates were prepared and used without further purification. Human SPHK2, which was partially purified from baculovirus-infected Sf9 cell lysates, was purchased from a commercial source. Sphingosine kinase assays were performed using standard protocols. Product [^32P]S1P was recovered by binding to cation exchange paper and quantified by scintillation counting.

The target of assay [2] is T2, human sphingosine kinase type 2 (hSPHK2) (Homo sapiens, UniProt Q9NRA0).
T2 construct: purchased; host or cells: Sf9 insect cells (baculovirus)
T2 sequence (Q9NRA0 1-654): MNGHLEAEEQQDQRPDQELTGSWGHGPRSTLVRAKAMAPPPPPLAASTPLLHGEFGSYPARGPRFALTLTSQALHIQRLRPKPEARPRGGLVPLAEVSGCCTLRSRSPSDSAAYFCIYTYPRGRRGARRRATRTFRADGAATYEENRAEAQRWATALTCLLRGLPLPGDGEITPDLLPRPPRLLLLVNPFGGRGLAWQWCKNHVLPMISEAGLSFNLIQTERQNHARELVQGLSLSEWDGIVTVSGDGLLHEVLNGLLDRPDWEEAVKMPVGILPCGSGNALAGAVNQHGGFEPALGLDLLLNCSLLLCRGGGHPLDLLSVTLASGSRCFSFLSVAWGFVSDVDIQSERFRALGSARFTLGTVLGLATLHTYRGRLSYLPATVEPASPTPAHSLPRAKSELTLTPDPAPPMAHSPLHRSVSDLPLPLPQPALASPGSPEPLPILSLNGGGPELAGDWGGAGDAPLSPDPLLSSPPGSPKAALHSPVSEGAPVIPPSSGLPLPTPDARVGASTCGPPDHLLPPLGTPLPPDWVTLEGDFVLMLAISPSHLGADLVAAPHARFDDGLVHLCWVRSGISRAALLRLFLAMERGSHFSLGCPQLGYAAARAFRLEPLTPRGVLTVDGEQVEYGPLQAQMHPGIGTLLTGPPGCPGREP
Kind of assay: Sphingosine kinase assay, recombinant human SPHK2 ([32P]S1P product, scintillation counting). Type of assay: biochemical. As to conditions: read-out: activity hSPHK2 (range estimate of KI). The method, then:
as §1

T1 sequence (Q9NYA1 whole entry): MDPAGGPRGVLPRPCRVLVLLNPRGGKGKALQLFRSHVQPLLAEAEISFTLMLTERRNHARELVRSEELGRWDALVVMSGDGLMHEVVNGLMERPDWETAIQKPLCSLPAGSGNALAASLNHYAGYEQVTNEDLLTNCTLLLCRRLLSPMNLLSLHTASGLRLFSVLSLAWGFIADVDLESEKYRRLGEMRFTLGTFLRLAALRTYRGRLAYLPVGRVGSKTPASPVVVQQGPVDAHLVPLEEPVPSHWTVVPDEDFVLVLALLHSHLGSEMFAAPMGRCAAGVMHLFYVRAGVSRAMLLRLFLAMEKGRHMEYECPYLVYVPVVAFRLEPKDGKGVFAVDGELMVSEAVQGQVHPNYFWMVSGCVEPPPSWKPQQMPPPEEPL

With `CCCCCCCOc1ccc2cc(-c3noc([C@@H]4CCCN4C(=N)N)n3)ccc2c1` [Compound 13A, (S)-amino(2-(3-(6-(heptyloxy)naphthalen-2-yl)-1,2,4-oxadiazol-5-yl)pyrrolidin-1-yl)methaniminium chloride], the Ki (in general, the equilibrium dissociation constant of an inhibitor or competing ligand from its target) in assay [1] is more than 10 µM; in assay [2], 1 to 10 µM.

Take `CCCCCCCCOc1ccc(-c2noc([C@@H]3CCN3C(=N)N)n2)cc1C(F)(F)F` [Compound 13B]: the Ki in assay [1] is 1 to 10 µM; in assay [2] it was less than 1 µM.

`CC(C)COc1ccc2cc(-c3noc([C@@H]4CCCN4C(=N)N)n3)ccc2c1` [Compound 14A, (S)-amino(2-(3-(6-isobutoxynaphthalen-2-yl)-1,2,4-oxadiazol-5-yl)pyrrolidin-1-yl)methaniminium chloride]: the Ki in assay [1] and in assay [2] was more than 10 µM throughout.

With `CCCCCOc1ccc2cc(-c3noc([C@@H]4[C@@H](O)CCN4C(=N)N)n3)ccc2c1` [Compound 14B, Amino((2S,3S)-3-hydroxy-2-(3-(6-(pentyloxy)naphthalen-2-yl)-1,2,4-oxadiazol-5-yl)pyrrolidin-1-yl)methaniminium chloride], the Ki in assay [1] and in assay [2] was less than 1 µM in each case.

Turning to `CC(C)COc1ccc2cc(-c3noc([C@@H]4[C@@H](O)CCN4C(=N)N)n3)ccc2c1` [Compound 15A, Amino((2S,3S)-3-hydroxy-2-(3-(6-isobutoxynaphthalen-2-yl)-1,2,4-oxadiazol-5-yl)pyrrolidin-1-yl)methaniminium chloride], the results for the Ki in assay [1] and in assay [2] were 1 to 10 µM and more than 10 µM, respectively.

For `CCCCCCOc1ccc2cc(-c3noc([C@@H]4CCCN4C(=N)N)n3)ccc2c1` [Compound 16A, (S)-amino(2-(3-(6-(hexyloxy)naphthalen-2-yl)-1,2,4-oxadiazol-5-yl)pyrrolidin-1-yl)methaniminium chloride], the Ki in assay [1] and in assay [2] was more than 10 µM in each case.

Take `CCCCCCCCCCn1ccc2ccc(-c3noc([C@@H]4CCCN4C(=N)N)n3)cc21` [Compound 18A, (S)-amino(2-(3-(1-decyl-1H-indol-6-yl)-1,2,4-oxadiazol-5-yl)pyrrolidin-1-yl)methaniminium chloride]: the Ki is more than 10 µM in assay [1] and 1 to 10 µM in assay [2].

With `CCCCCCCCOc1ccc(-c2noc([C@@H]3CC(F)(F)CN3C(=N)N)n2)cc1C(F)(F)F` [Compound 19A, (S)-amino(4,4-difluoro-2-(3-(4-(octyloxy)-3-(trifluoromethyl)phenyl)-1,2,4-oxadiazol-5-yl)pyrrolidin-1-yl)methaniminium chloride], the Ki in assay [1] and in assay [2] was more than 10 µM in each case.

Regarding `CCCCCCCCOc1ccc(-c2noc([C@@H]3[C@@H](CO)CCN3C(=N)N)n2)cc1C(F)(F)F` [Compound 20a, 2,2,2-trifluoroacetate], the Ki in assay [1] and in assay [2] was less than 1 µM throughout.

In the case of `CCCCCCCCOc1ccc(-c2noc([C@@H]3C=CCN3C(=N)N)n2)cc1C(F)(F)F` [Compound 21A, (S)-amino(2-(3-(4-(octyloxy)-3-(trifluoromethyl)phenyl)-1,2,4-oxadiazol-5-yl)-2,5-dihydro-1H-pyrrol-1-yl)methaniminium chloride], the Ki was more than 10 µM in assay [1] and less than 1 µM in assay [2].

Turning to `N=C(N)N1CC[C@H](O)[C@H]1c1nc(-c2ccc(OCCCc3ccc(C(F)(F)F)cc3)c(C(F)(F)F)c2)no1` [Compound 22A, amino((2S,3S)-3-hydroxy-2-(3-(3-(trifluoromethyl)-4-(3-(4-(trifluoromethyl)phenyl)propoxy)phenyl)-1,2,4-oxadiazol-5-yl)pyrrolidin-1-yl)methaniminium chloride], the figures for the inhibitory constant (Ki) in assay [1] and in assay [2] were 1 to 10 µM and less than 1 µM, respectively.

For the molecule `N=C(N)N1CC[C@H](O)[C@H]1c1nc(-c2ccc(OCCc3ccc(C(F)(F)F)cc3)c(C(F)(F)F)c2)no1` [Compound 23A, amino((2S,3S)-3-hydroxy-2-(3-(3-(trifluoromethyl)-4-(4-(trifluoromethyl)phenethoxy)phenyl)-1,2,4-oxadiazol-5-yl)pyrrolidin-1-yl)methaniminium chloride], the inhibitory constant (Ki) in assay [1] is 1 to 10 µM; in assay [2] it was less than 1 µM.

On to `N=C(N)N1CC[C@H](O)[C@H]1c1nc(-c2ccc(OCc3ccc(C(F)(F)F)cc3)c(C(F)(F)F)c2)no1` [Compound 24A, amino((2S,3S)-3-hydroxy-2-(3-(3-(trifluoromethyl)-4-((4-(trifluoromethyl)benzyl)oxy)phenyl)-1,2,4-oxadiazol-5-yl)pyrrolidin-1-yl)methaniminium chloride], for which the inhibitory constant (Ki) in assay [1] is 1 to 10 µM; in assay [2], less than 1 µM.

As for `N=C(N)N1CC[C@H](O)[C@H]1c1nc(-c2ccc(OCCCCc3ccc(C(F)(F)F)cc3)c(C(F)(F)F)c2)no1` [Compound 25A, amino((2S,3S)-3-hydroxy-2-(3-(3-(trifluoromethyl)-4-(4-(4-(trifluoromethyl)phenyl)butoxy)phenyl)-1,2,4-oxadiazol-5-yl)pyrrolidin-1-yl)methaniminium chloride], the Ki in assay [1] and in assay [2] was less than 1 µM throughout.

In the case of `N=C(N)N1CCC[C@H]1c1nc(-c2ccc(OCCCCc3ccc(C(F)(F)F)cc3)c(C(F)(F)F)c2)no1` [Compound 26A, (S)-amino(2-(3-(3-(trifluoromethyl)-4-(4-(4-(trifluoromethyl)phenyl)butoxy)phenyl)-1,2,4-oxadiazol-5-yl)pyrrolidin-1-yl)methaniminium chloride], the figures for the inhibition constant Ki in assay [1] and in assay [2] were more than 10 µM and less than 1 µM, respectively.

For `N=C(N)N1CC[C@H](O)[C@H]1c1nc(-c2ccc(OCCCc3ccc4c(c3)OCCO4)c(C(F)(F)F)c2)no1` [Compound 27A], the inhibition constant Ki in assay [1] is more than 10 µM; in assay [2], 1 to 10 µM.

Turning to `N=C(N)N1CC[C@H](O)[C@H]1c1nc(-c2ccc(OCCCc3ccc(Cl)c(Cl)c3)c(C(F)(F)F)c2)no1` [Compound 28A], the Ki in assay [1] is 1 to 10 µM; in assay [2] it was less than 1 µM.

Regarding `N=C(N)N1CCC[C@H]1c1nc(-c2ccc(OCCCc3ccc4c(c3)OCCO4)c(C(F)(F)F)c2)no1` [Compound 29A, (S)-amino(2-(3-(4-(3-(2,3-dihydrobenzo[b][1,4]dioxin-6-yl)propoxy)-3-(trifluoromethyl)phenyl)-1,2,4-oxadiazol-5-yl)pyrrolidin-1-yl)methaniminium chloride], the inhibitory constant (Ki) in assay [1] and in assay [2] was more than 10 µM each time.

Take `N=C(N)N1CCC[C@H]1c1nc(-c2ccc(OCCCc3ccc(Cl)c(Cl)c3)c(C(F)(F)F)c2)no1` [Compound 30A, (S)-amino(2-(3-(4-(3-(3,4-dichlorophenyl)propoxy)-3-(trifluoromethyl)phenyl)-1,2,4-oxadiazol-5-yl)pyrrolidin-1-yl)methaniminium chloride]: the inhibition constant Ki in assay [1] is more than 10 µM; in assay [2], less than 1 µM.

With `N=C(N)N1C[C@H](O)C[C@H]1c1nc(-c2ccc(OCCCc3ccc(Cl)c(Cl)c3)c(C(F)(F)F)c2)no1` [Compound 31A, amino((2S,4R)-2-(3-(4-(3-(3,4-dichlorophenyl)propoxy)-3-(trifluoromethyl)phenyl)-1,2,4-oxadiazol-5-yl)-4-hydroxypyrrolidin-1-yl)methaniminium chloride], the Ki was more than 10 µM in assay [1] and less than 1 µM in assay [2].
